Test results from PubChem BioAssay AID1845213 (Molecular Pharmacology Branch, DTP, NCI, 2023).

Test system: NCI-H841 complex tumor spheroid viability
Test: Anticancer human tumor NCI-H841 cell line growth inhibition;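 also: spheroids exposed to compounds for 7 days before readout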;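 as to viability, T/C: 100% = DMSO vehicle control wells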
Details: for IC50: curve of first compound; for viability, T/C: stronger effect = lower value
Excerpt: Multicellular complex tumor spheroid response to DNA repair inhibitors in combination with DNA-damaging drugs
This study explores the anticancer activities of DNA-damaging drugs and inhibitors of DNA damage repair, both as single agents and in combinations. Complex tumor spheroids comprised of malignant cells, endothelial cells and mesenchymal stem cells served as an in vitro model for human solid tumors. This model system incorporates physiologically relevant features and patient-derived or established malignant cell lines with clinically relevant genetic alterations from many tumor types. Twenty-six patient-derived or established malignant cell lines were evaluated representing sarcoma, melanoma, small cell lung cancer (SCLC), non-small cell lung cancer (NSCLC), as well as bladder, ovarian and pancreatic cancers. The concentration ranges selected for each drug and investigational agent were based upon clinically achievable concentrations if the clinical Cmax of the agent was known.
Compounds. The drugs and compounds olaparib (NSC753686), talazoparib (NSC767125), berzosertib (NSC777718), elimusertib (NSC800525), nedisertib (NSC802822), VX-984 (NSC792969), AZD-1390 (NSC803789), temozolomide (NSC362856), topotecan (NSC609699), trabectedin (NSC813783), staurosporine (NSC755774), and gemcitabine (NSC613327) were obtained from the National Cancer Institute (NCI) Developmental Therapeutics Program Chemical Repository. The FDA-approved anticancer drug set is available from the Developmental Therapeutics Program at https://dtp.cancer.gov/organization/dscb/obtaining/available_plates.htm. […] The stock solutions were prepared in dimethyl sulfoxide (DMSO, Sigma-Aldrich, St. Louis, MO, cat. D2650) at 400-fold the tested concentration and stored at -70 degrees C. Prior to their use, the stock solutions were diluted in fresh medium and the final DMSO concentration in the assay was 0.25% (v/v). All drugs and investigational agents were tested over a range starting from a high concentration at or near the clinical Cmax and decreasing in half-log increments. If the clinical Cmax for an agent had not been determined, the highest concentration tested was 10 microM.
Cell Lines. The patient-derived cancer cell (PDC) lines: 156681-154-R-J1-PDC, 283228-195-R-J1-PDC, 287954-098-R-J1-PDC, 292921-168-R-J2-PDC, 349418-098-R-PDC, 425362-245-T-J1-PDC, 556581-035-R-J1-PDC, and BL0293-F563-PDC were received from the NCI Patient-Derived Models Repository (PDMR, https://pdmr.cancer.gov). The established cell lines HS-SY-2 (RRID:CVCL_8719), MPNST, and SYO-1 (RRID:CVCL_7146) were obtained from the Sloan Kettering Institute. The alveolar soft parts sarcoma cell line ASPS-1 (RRID:CVCL_S738) was established at the NCI and grown from internal seed stocks. The following established cell lines were purchased from the American Type Culture Collection (ATCC, Manassas, VA): G-401 (ATCC, cat. CRL-1441, RRID:CVCL_0270), SW982 (ATCC, cat. HTB-93, RRID:CVCL_1734), VA-ES-BJ (ATCC, cat. CRL-2138, RRID:CVCL_1785), NCI-H719 (ATCC, cat. CRL-5837, RRID:CVCL_1582), NCI-H196 (ATCC, cat. CRL-5823, RRID:CVCL_1509), NCI-H841 (ATCC, cat. CRL-5845, RRID:CVCL_1595), NCI-H1618 (ATCC, cat. CRL-5879, RRID:CVCL_1480), NCI-H1876 (ATCC, cat. CRL-5902, RRID:CVCL_1503), DMS 114 (ATCC, cat. CRL-2066; RRID:CVCL_1174), NCI-H211 (ATCC, cat. CRL-5824; RRID:CVCL_1529), and SW 1271 (ATCC, cat. CRL-2177, RRID:CVCL_1716). The small cell lung cancer cell line COR-L88 was purchased from Sigma-Aldrich (cat. 92031917-1VL, RRID:CVCL_1141). The non-small cell lung cancer cell lines NCI-H226 (RRID:CVCL_1544) and NCI-H322M (RRID:CVCL_1557) were established at the NCI and grown from internal seed stocks. Pooled donor human umbilical vein endothelial cells (HUVEC, Lonza, cat. CC-2519) and human mesenchymal stem cells (hMSC, Lonza, cat. PT-2501) were purchased from Lonza (Walkersville, MD).
Cell Culture. All cells were maintained in an incubator at 37 degrees C and 5% CO2 with 95% humidity. […]

With Cn1ncnc1[C@H]1c2n[nH]c(=O)c3cc(F)cc(c23)N[C@@H]1c1ccc(F)cc1 + COc1cc2c(cc1O)CCNC21CSC2c3c(OC(C)=O)c(C)c4c(c3C(COC1=O)N1C(O)C3Cc5cc(C)c(OC)c(O)c5C(C21)N3C)OCO4 the IC50 (second compound 30 pM) was 514 nM, the IC50 (second compound 94.9 pM) was 252 nM and the IC50 (second compound 0.0003 µM) was less than 9.49 nM. It also gave an IC50 (second compound 0.000949 µM) of less than 9.49 nM, an IC50 (second compound 0.003 µM) of less than 9.49 nM and a viability, T/C (second compound 30 pM, first compound 0.00949 µM) of 94%. The viability, T/C (second compound 30 pM, first compound 0.03 µM) was 91.6%, the viability, T/C (second compound 30 pM, first compound 0.0949 µM) was 86.4% and the viability, T/C (second compound 30 pM, first compound 0.3 µM) was 71.3%. For the same molecule, the viability, T/C (second compound 30 pM, first compound 0.949 µM) was 26.4%, the viability, T/C (second compound 30 pM, first compound 3 µM) was 1.05% and the viability, T/C (second compound 94.9 pM, first compound 0.00949 µM) was 85.6%. The viability, T/C (second compound 94.9 pM, first compound 0.03 µM) was 76.5%, the viability, T/C (second compound 94.9 pM, first compound 0.0949 µM) was 66.1% and the viability, T/C (second compound 94.9 pM, first compound 0.3 µM) was 51.5%. For the same molecule, the viability, T/C (second compound 94.9 pM, first compound 0.949 µM) was 11%, the viability, T/C (second compound 94.9 pM, first compound 3 µM) was 1.19% and the viability, T/C (second compound 0.0003 µM, first compound 0.00949 µM) was 16.7%. The viability, T/C (second compound 0.0003 µM, first compound 0.03 µM) was 9.8%, the viability, T/C (second compound 0.0003 µM, first compound 0.0949 µM) was 7.64% and the viability, T/C (second compound 0.0003 µM, first compound 0.3 µM) was 2.97%. The viability, T/C (second compound 0.0003 µM, first compound 0.949 µM) was 1.63%, the viability, T/C (second compound 0.0003 µM, first compound 3 µM) was 1.27% and the viability, T/C (second compound 0.000949 µM, first compound 0.00949 µM) was 3.02%. For the same molecule, the viability, T/C (second compound 0.000949 µM, first compound 0.03 µM) was 3.35%, the viability, T/C (second compound 0.000949 µM, first compound 0.0949 µM) was 2.75% and the viability, T/C (second compound 0.000949 µM, first compound 0.3 µM) was 2.82%. It also gave a viability, T/C (second compound 0.000949 µM, first compound 0.949 µM) of 2.18%, a viability, T/C (second compound 0.000949 µM, first compound 3 µM) of 0.23% and a viability, T/C (second compound 0.003 µM, first compound 0.00949 µM) of 0.11%. The viability, T/C (second compound 0.003 µM, first compound 0.03 µM) was 0.12%, the viability, T/C (second compound 0.003 µM, first compound 0.0949 µM) was 0.12% and the viability, T/C (second compound 0.003 µM, first compound 0.3 µM) was 0.1%. For the same molecule, the viability, T/C (second compound 0.003 µM, first compound 0.949 µM) was 0.1% and the viability, T/C (second compound 0.003 µM, first compound 3 µM) was 0.19%.

CC(C)n1c(=O)n(C)c2cnc3cc(F)c(-c4ccc(OCCCN5CCCCC5)nc4)cc3c21 + COc1cc2c(cc1O)CCNC21CSC2c3c(OC(C)=O)c(C)c4c(c3C(COC1=O)N1C(O)C3Cc5cc(C)c(OC)c(O)c5C(C21)N3C)OCO4 was tested, and the IC50 (second compound 30 pM) was greater than 10000 nM, the IC50 (second compound 94.9 pM) was less than 31.6 nM and the IC50 (second compound 0.0003 µM) was less than 31.6 nM. For the same molecule, the IC50 (second compound 0.000949 µM) was less than 31.6 nM, the IC50 (second compound 0.003 µM) was less than 31.6 nM and the viability, T/C (second compound 30 pM, first compound 0.0316 µM) was 83.8%. For the same molecule, the viability, T/C (second compound 30 pM, first compound 0.1 µM) was 79.7%, the viability, T/C (second compound 30 pM, first compound 0.316 µM) was 78.9% and the viability, T/C (second compound 30 pM, first compound 1 µM) was 79.1%. The viability, T/C (second compound 30 pM, first compound 3.16 µM) was 79.1%, the viability, T/C (second compound 30 pM, first compound 10 µM) was 69.5% and the viability, T/C (second compound 94.9 pM, first compound 0.0316 µM) was 40.4%. The viability, T/C (second compound 94.9 pM, first compound 0.1 µM) was 34.5%, the viability, T/C (second compound 94.9 pM, first compound 0.316 µM) was 32% and the viability, T/C (second compound 94.9 pM, first compound 1 µM) was 25.9%. The viability, T/C (second compound 94.9 pM, first compound 3.16 µM) was 26.2%, the viability, T/C (second compound 94.9 pM, first compound 10 µM) was 18% and the viability, T/C (second compound 0.0003 µM, first compound 0.0316 µM) was 3.09%. For the same molecule, the viability, T/C (second compound 0.0003 µM, first compound 0.1 µM) was 3.02%, the viability, T/C (second compound 0.0003 µM, first compound 0.316 µM) was 2.66% and the viability, T/C (second compound 0.0003 µM, first compound 1 µM) was 2.5%. The viability, T/C (second compound 0.0003 µM, first compound 3.16 µM) was 2.79%, the viability, T/C (second compound 0.0003 µM, first compound 10 µM) was 2% and the viability, T/C (second compound 0.000949 µM, first compound 0.0316 µM) was 2.82%. The viability, T/C (second compound 0.000949 µM, first compound 0.1 µM) was 3.14%, the viability, T/C (second compound 0.000949 µM, first compound 0.316 µM) was 3.38% and the viability, T/C (second compound 0.000949 µM, first compound 1 µM) was 2.32%. It also gave a viability, T/C (second compound 0.000949 µM, first compound 3.16 µM) of 2.06%, a viability, T/C (second compound 0.000949 µM, first compound 10 µM) of 1.47% and a viability, T/C (second compound 0.003 µM, first compound 0.0316 µM) of 0.11%. For the same molecule, the viability, T/C (second compound 0.003 µM, first compound 0.1 µM) was 0.12%, the viability, T/C (second compound 0.003 µM, first compound 0.316 µM) was 0.11% and the viability, T/C (second compound 0.003 µM, first compound 1 µM) was 0.1%. For the same molecule, the viability, T/C (second compound 0.003 µM, first compound 3.16 µM) was 0.1% and the viability, T/C (second compound 0.003 µM, first compound 10 µM) was 0.15%.
